Patent publication US20130053305A1, “PEPTIDE COMPOUNDS THAT CAN BE USED AS ANTIBACTERIAL AGENTS” (UNIVERSIDAD DE BARCELONA, priority 2010, published 2013)
Like-named read-outs stand apart in the source and are kept apart here. Positions of bridges follow the written chain, without caps; N, C: chain ends. Non-standard residues stand in square brackets, D forms with d. Residues, ends and D or L forms follow the SMILES beside them. *: point of attachment. Nonanoyl = CCCCCCCCC(=O)*; X1 = CC[C@H](C)CCCCC(=O)*; Dab = NCC[C@H](N)C(=O)O

Key:
[1] = system: Microccous luteus ATCC 9341; type: cell-based, Micrococcus luteus
Experimental: (§1) The antibacterial activity of the lipopeptides was measured in sterile 96-well plates (Corning Costar 3598 microtiter plates). Samples of a final volume of 200 μL were prepared as follows: aliquots (100 μL) of a suspension containing bacteria at a concentration of 10^5 colony-forming units/mL in culture medium (MH, Muller Hinton Broth, Difco, USA), adjusted at pH 7.4, were added to 100 μL of solution containing the peptide prepared from a stock solution of 1 mg/mL peptide in water in serial 2-fold dilutions in MH broth adjusted to pH 7.4 (Jorgensen and Turnide, 2003).
(§2) Inhibition of bacterial growth was determined by measuring the absorbance at 492 nm with a Absorbance Microplate reader ELx 800 (Bio-tek Instruments) after an incubation of 24-48 h at 37° C. Antibacterial activities are expressed as the MIC, the concentration at which no growth is observed after 24-48 h of incubation.
(§3) Microorganisms were cultured on Tryptycase Soy Broth (Pronadisa, Barcelona) and incubated at 37° C. until bacterial growth was observed. Then a loopful was streaked on Trypticase Soy Agar (Pronadisa, Barcelona) and incubated at 37° C. until colony formation occurred. Microorganisms were preserved on cryobilles (EAS laboratoire, France) at −20° C.
(§4) Bacterial strains used for the antibacterial activity tests were obtained from the American Type Culture Collection (ATCC, Rockville, Md., USA): […]

[2] = system: Staphylococcus aureus ATCC 6538; type: cell-based
Experimental: as §1, §2, §3, §4

[3] = system: Mycobacterium phlei ATCC 41423; type: cell-based
Experimental: as §1, §2, §3, §4

[4] = system: Acinetobacter sp ATCC 5798; type: cell-based
Experimental: as §1, §2, §3
(§5) Bacterial strains used for the antibacterial activity tests were obtained from the American Type Culture Collection (ATCC, Rockville, Md., USA):
Acinetobacter sp ATCC 5798

[5] = system: Escherichia coli ATCC 8739; type: cell-based
Experimental: as §1, §2, §3, §5
(§6) Escherichia coli ATCC 8739 Pseudomonas aeruginosa ATCC 9027 Salmonella typhimurium ATCC 14028

[6] = system: Pseudomonas aeruginosa ATCC 9027; type: cell-based
Experimental: as §1, §2, §3, §5, §6

[7] = system: Salmonella typhimurium ATCC 14028; type: cell-based
Experimental: as §1, §2, §3, §5, §6

Gram positive bacteria = test: Antibacterial test, summary for Gram positive bacteria; type: cell-based; settings: summary in words
Experimental: as §1, §2, §3, §4

[8] = MH broth pH 7.4, 24-48 h at 37° C.
[9] = Table 1 values displayed in micromolar units
[10] = Table 2 values displayed in micromolar units

Structure (SMILES) | MIC Micrococcus luteus ([1]; ATCC 9341) | MIC Micrococcus luteus [1, 8] | MIC Staphylococcus aureus ([2]; ATCC 6538) | MIC Staphylococcus aureus [2, 8] | MIC Micobacterium phlei ([3]; ATCC 41423) | MIC Micobacterium phlei ([3]; ATCC 41423, pH 7.4) | MIC Acinetobacter sp ATCC 5798 ([4]; ATCC 5798) | MIC Acinetobacter sp ATCC 5798 [4, 8] | MIC Escherichia coli 8739 ([5]; ATCC 8739) | MIC Escherichia coli 8739 [5, 8] | MIC Pseudomonas aeruginosa 9027 ([6]; ATCC 9027) | MIC Pseudomonas aeruginosa 9027 [6, 8] | MIC Salmonella typhimurium 14028 ([7]; ATCC 14028) | MIC Salmonella typhimurium 14028 ([7]; ATCC 14028, pH 7.4) | MIC Micobacterium phlei [3, 8] | MIC Pseudomonas aeruginosa 9027 ([6]; ATCC 9027, pH 7.4) | MIC Salmonella typhimurium 14028 [7, 8] | also measured
CCCCCCCCC(=O)N[C@@H](CCCNC(=N)N)C(=O)N[C@H](C(=O)N[C@@H](CCN)C(=O)N[C@H]1CCNC(=O)[C@H]([C@@H](C)O)NC(=O)[C@H](CCN)NC(=O)[C@H](CCCNC(=N)N)NC(=O)[C@H](CC(C)C)NC(=O)[C@@H](Cc2ccccc2)NC(=O)[C@H](CCN)NC1=O)[C@@H](C)O [(Ia1), nonanoyl-Arg-Thr-Dab-cyclo(4-10)[Dab-Dab-DPhe-Leu-Arg-Dab-Thr]] (Nonanoyl-RT[Dab][Dab][Dab][dF]LR[Dab]T; lactam 4-C) | 12.16 µM | 16 µg/mL | 24.32 µM | 32 µg/mL | 6.08 to 12.16 µM | 8 to 16 µg/mL | 6.08 µM | 8 µg/mL | 3.04 µM | 4 µg/mL | 3.04 µM | 4 µg/mL | 6.08 to 12.16 µM | 8 to 16 µg/mL |  |  |  | 
CCCCCCCCC(=O)N[C@@H](CCCNC(=N)N)C(=O)N[C@H](C(=O)N[C@@H](CCN)C(=O)N[C@H]1CSSC[C@@H](C(=O)NCC(=O)N[C@@H](CCCNC(=N)N)C(=O)N[C@H](C(=O)N[C@@H](CCC(=O)O)C(=O)N[C@H](C(=O)N[C@@H](CC(C)C)C(=O)N[C@@H](Cc2ccc(O)cc2)C(=O)N[C@@H](CCCNC(=N)N)C(=O)NCC(=O)N[C@@H](CO)C(=O)N[C@@H](Cc2c[nH]c3ccccc23)C(N)=O)C(C)C)C(C)C)NC(=O)[C@H](CCN)NC(=O)[C@H](CCCNC(=N)N)NC(=O)[C@H](CC(C)C)NC(=O)[C@@H](Cc2ccccc2)NC(=O)[C@H](CCN)NC1=O)[C@@H](C)O [(Ib3)] (Nonanoyl-RT[Dab]C[Dab][dF]LR[Dab]CGRVEVLYRGSW-NH2; disulfide 4-10) | 3.03 to 6.06 µM |  | 6.06 µM | 16 µg/mL | 6.06 µM |  | 1.51 µM | 4 µg/mL | 6.06 µM | 16 µg/mL | >12.12 µM |  | 6.06 µM |  | 16 µg/mL | >32 µg/mL | 16 µg/mL | MIC Micrococcus luteus ([1]; ATCC 9341, pH 7.4): 8 to 16 µg/mL
CCCCCCCCC(=O)N[C@@H](CCCNC(=N)N)C(=O)N[C@H](C(=O)N[C@@H](CCN)C(=O)N[C@H]1CSSC[C@@H](C(=O)N[C@@H](CC(C)C)C(=O)N[C@@H](CCSC)C(=O)N[C@@H](Cc2c[nH]c3ccccc23)C(=O)N[C@@H](Cc2c[nH]c3ccccc23)C(=O)N[C@@H](CCSC)C(=O)N[C@@H](CC(C)C)C(N)=O)NC(=O)[C@H](CCN)NC(=O)[C@H](CCCNC(=N)N)NC(=O)[C@H](CC(C)C)NC(=O)[C@@H](Cc2ccccc2)NC(=O)[C@H](CCN)NC1=O)[C@@H](C)O [(Ib6), nonanoyl-Arg-Thr-Dab-cyclo(S—S)[Cys-Dab-DPhe-Leu-Arg-Dab-Cys]-Leu-Met-Trp-Trp-Met-Leu] (Nonanoyl-RT[Dab]C[Dab][dF]LR[Dab]CLMWWML-NH2; disulfide 4-10) | 3.64 µM | 8 µg/mL | 7.28 µM | 16 µg/mL | >14.56 µM | >32 µg/mL | 3.64 to 7.28 µM |  | >14.56 µM |  | >14.56 µM |  | >14.56 µM | >32 µg/mL |  | >32 µg/mL |  | MIC Acinetobacter sp ATCC 5798 ([4]; ATCC 5798, pH 7.4): 8 to 16 µg/mL; MIC Escherichia coli 8739 ([5]; ATCC 8739, pH 7.4): >32 µg/mL
CCCCCCCCC(=O)N[C@@H](CCCNC(=N)N)C(=O)N[C@H](C(=O)N[C@@H](CCN)C(=O)N[C@H]1CSSC[C@H](C(N)=O)NC(=O)[C@H](CCN)NC(=O)[C@H](CCCNC(=N)N)NC(=O)[C@H](CC(C)C)NC(=O)[C@@H](Cc2ccccc2)NC(=O)[C@H](CCN)NC1=O)[C@@H](C)O [(Ib13), nonanoyl-Arg-Thr-Dab-cyclo(S—S)[Cys-Dab-DPhe-Leu-Arg-Dab-DCys]] (Nonanoyl-RT[Dab]C[Dab][dF]LR[Dab][dC]-NH2; disulfide 4-10) | 5.99 µM | 8 µg/mL | 11.98 µM | 16 µg/mL | 5.99 to 11.98 µM | 8 to 16 µg/mL | 11.98 µM | 16 µg/mL | 5.99 µM | 8 µg/mL | 2.99 µM | 4 µg/mL | 11.98 µM |  |  |  | 16 µg/mL | 
CC[C@H](C)CCCCC(=O)N[C@@H](CCN)C(=O)N[C@H](C(=O)N[C@@H](CCN)C(=O)N[C@H]1CCNC(=O)[C@H]([C@@H](C)O)NC(=O)[C@H](CCN)NC(=O)[C@H](CCN)NC(=O)[C@H](CC(C)C)NC(=O)[C@@H](Cc2ccccc2)NC(=O)[C@H](CCN)NC1=O)[C@@H](C)O [PxB, (S)-6-methyloctanoyl-Dab-Thr-Dab-cyclo(4-10)[Dab-Dab-DPhe-Leu-Dab-Dab-Thr], reference compound] (X1-[Dab]T[Dab][Dab][Dab][dF]L[Dab][Dab]T; lactam 4-C) |  | 32 µg/mL |  | >32 µg/mL |  |  |  | 0.5 µg/mL |  | 1 to 2 µg/mL |  | 2 µg/mL |  |  | 32 µg/mL |  | 1 µg/mL | MIC Micrococcus luteus [1, 9]: 26.90 µM; antibacterial activity in Gram positive bacteria (Gram positive bacteria): does not show activity against Gram positive bacteria; MIC Staphylococcus aureus [2, 9]: >26.90 µM; MIC Micobacterium phlei [3, 9]: 26.90 µM; MIC Acinetobacter sp ATCC 5798 [4, 10]: 0.42 µM; MIC Escherichia coli 8739 [5, 10]: 0.84 to 1.68 µM; MIC Pseudomonas aeruginosa 9027 [6, 10]: 1.68 µM; MIC Salmonella typhimurium 14028 [7, 10]: 0.84 µM
